According to patent US7045495B2 (Sloan-Kettering Institute for Cancer Research, priority 1996, dated 2006):
Read-outs that look alike come from different tables or passages of the source.

Key:
SK-GT-5 cells = test: apoptosis by quantitative fluorescent microscopy (QFM), Hoechst-33258 staining; assay type: cell-based, human; conditions: FIG. 4: safingol 50 μM and/or PMA 1 ng/ml for 1 hour, then MMC 5 μg/ml or no drug 24 hours; MMC alone 24 hours
Protocol: (§1) Apoptosis was measured by two different methods: (i) Quantitative fluorescent microscopy (QFM) of nuclear changes induced by apoptosis, as determined by bisbenzimide trihydrochloride (Hoescht-33258) staining of nuclear chromatin (15), and (ii) a terminal deoxynucleotidyl transferase (TdT) assay that labels the 3′-OH ends of DNA fragments produced in apoptotic cells (16). […] MMC was diluted in water. A stock safingol solution was constituted in DMSO and was subsequently diluted at least 1:100 in media for all experiments. […] For QFM determinations, the cells were fixed in 3% paraformaldehyde and incubated at room temperature for 10 minutes. The fixative was removed and the cells were washed with 1×PBS, resuspended in 20 μl 1×PBS containing only 8 μg/ml of bisbenzimide trihydrochloride (Hoechst #33258), and incubated at room temperature for 15 minutes. Aliquots of the cells (10 μl) were placed on glass slides coated with 3-amino-propyl-triethoxysilane, and duplicate samples of 500 cells each were counted and scored for the incidence of apoptotic chromatin condensation using an Olympus BH-2 fluorescence microscope equipped with a BH2-DM2U2UV Dich. Mirror Cube filter (Olympus, Lake Success, N.Y.). For the TdT assays, the ApopTag Kit (Oncor, Gaithersburg, Md.) was used. This method employs a fluoresceinated antidigoxigenin antibody directed against nucleotides of digoxigenin-11-dUTP (d-dUTP) which are catalytically added to the 3-ends fragmented DNA by TdT. Briefly, 1–2×10^6 cells were washed and fixed with 1% paraformaldehyde. The fixed cells were incubated in a reaction mixture containing TdT and d-dUTP for 30 minutes at 37° C. Stop/wash buffer was added, and the cells were resuspended in 100 μl of fluorescinated anti-digoxigenin antibody for 30 minutes at room temperature. The cells were then washed with 0.1% Triton X-100 and counterstained with propidium iodide (PI) solution. Green (d-dUTP labeled DNA strand breaks) and red (PI staining for total DNA content) fluorescence of individual cells were measured on a FACScan flow cytometer (Becton Dickinson, San Jose, Calif.). The resulting bivariate plots enabled the detection of apoptotic events within the cell cycle. The R1 cursor was set using the control specimen to define normal levels of green fluorescence (i.e., basal levels of apoptosis). Cells with fluorescence above the R, cursor were considered apoptotic. The data from 10,000 cells were collected and analyzed using CellFit and LYSYS software (Becton Dickinson).
For the QFM duplicate samples of 500 cells each were counted and scored for the incidence of apoptotic chromatin condensation using an Olympus BH-2 fluorescence microscope.

metastatic breast cancer = conditions: cited from earlier work
MKN-74 cells = test: apoptosis by QFM, Hoechst-33258 staining; assay type: cell-based, human; conditions: for Percent Apoptosis: 24 h continuous (single drug) or concomitant, flavopiridol 300 nM, paclitaxel 50 μM, carboplatin; for induction of apoptosis (condensed chromatin, 400 cells): MKN-74, UCN-01 7.5 to 10 μM
Protocol: as §1
Apoptosis was again measured by QFM staining.
(§2) Induction of apoptosis was estimated by counting the frequency of condensed nuclear chromatin with Hoechst-33258 stain in duplicate samples of 400 cells.
For these studies apoptosis was measured by quantitative fluorescent microscopy (QFM) determination with bisbenzimide trihydrochloride stain (Hoescht-33258) for condensed nuclear chromatin characteristic of apoptotic cells.
For QFM determinations 500 cells were counted and scored for the incidence of apoptotic chromatin changes under an Olympus BH-2 fluorescence microscope in duplicate samples, ±SD, using a BH2-DM2U2UV Dich. Mirror Cube filter.
To study this further applicants elected to examine five bis-indolylmaleimides with various potencies against PKC. […] The induction of apoptosis was estimated by counting the frequency of condensed nuclear chromatin with Hoechst-33258 stain in duplicate samples of 400 cells.

esophageal carcinoma = conditions: cited from earlier work
mammary carcinomas = test: tumor size in mice bearing mammary carcinomas; assay type: in vivo; conditions: for increase in tumor size by day #6: bryostatin 60 μg/kg followed in 12 hours by Mitomycin-C 3 μg/kg or Taxol 50 μg/kg, preliminary
MKN-74 = test: cell viability, trypan blue dye exclusion; assay type: cell-based, human; conditions: 24 hours, single drug or concomitant; bryostatin 1 μM, Mitomycin-C 1 μg/ml, Taxol 50 μM, Cisplatin 50 μM
Source text: Recently our laboratory has studied the effects of combining bryostatin with chemotherapy both in vitro and in vivo against solid tumors. For our in vitro studies, we have been using the human gastric cancer cell line MKN-74. Cytotoxicity has been examined both by cell viability assays using trypan blue dye exclusion assays and by the induction of apoptosis using quantitative fluorescent microscopy.

PKC = conditions: cited from earlier work
[1] = tested on: MDA-MB-468 breast cancer cells; test: apoptosis by QFM, Hoechst-33258 staining; assay type: cell-based, human; conditions: 24 hours
Protocol: PRELIMINARY STUDIES. […] Apoptosis was measured by quantitative fluorescent microscopy (QFM) of nuclear changes induced by apoptosis, as determined by bisbenzimide trihydrochloride (Hoescht-33258) staining of condensed nuclear chromatin (24). For the QFM duplicate samples of 500 cells each were counted and scored for the incidence of apoptotic chromatin condensation using an Olympus BH-2 fluorescence microscope.
Applicants also tested the PKC inhibitor UCN-01 (27) which is currently in phase I clinical trial at the NCI. In contrast to safingol, which inhibits PKC by binding to its regulatory domain, UCN-01 inhibits PKC at its catalytic domain. Therefore, assessment of the effect of UCN-01 on inducing apoptosis in combination with MMC on MDA-MB-468 was also performed. The QFM method to quantitate apoptosis was again used. The conditions tested were identical to those described above for safingol except UCN-01 (1 μM) was substituted for safingol in all the conditions.
as §2

SK-GT-2 cells = test: apoptosis by QFM, Hoechst-33258 staining; assay type: cell-based, human; conditions: 24 hours; for percentage of cells undergoing apoptosis (QFM): MMC 5.0 μg/ml
Protocol: (i) Safingol enhances MMC-induced apoptosis: SK-GT-5 cells, which have a mutated p53 gene (9), were treated with safingol in the presence or absence of MMC for 24 hours. For determination of apoptosis SK-GT-5 cells were treated according to one of several conditions: (i) no drug (control) for 24 hours, (ii) Safingol alone (50 μM) for 24 hours. (This concentration represents the highest non-toxic dose of safingol for the SK-GT-5 cells, as determined by cell proliferation studies, and slightly exceeds the safingol concentration (30 μM) which inhibits PKC enzyme activity by 50% in vitro.), (iii) Mitomycin-C alone (2.5 μg/ml) for 24 hours, (iv) Mitomycin-C alone (5 μg/ml) for 24 hours, (v) the combination of safingol (50 μM) and Mitomycin-C (2.5 μg/ml) for 24 hours, (vi) the combination of safingol (50 μM) and Mitomycin-C (5 μg/ml) for 24 hours. Apoptosis was measured by quantitative fluorescent microscopy (QFM) of nuclear changes induced by apoptosis, as determined by bisbenzimide trihydrochloride (Hoescht-33258) staining of condensed nuclear chromatin (3,5). For the QFM duplicate samples of 500 cells each were counted and scored for the incidence of apoptotic chromatin condensation using an Olympus BH-2 fluorescence microscope.
(ii) UCN-01 enhances MMC-induced apoptosis: SK-GT-2 cells, which have a mutation in p53, were treated with increasing concentrations of UCN-01 in the presence or absence of a fixed dose of MMC for 24 hours.
Both UCN-01 and Flavo inhibit PKC. These drugs are cytotoxic to tumor cells and have been reported to induce apoptosis. […] In order to test this hypothesis we elected to treat gastric cancer cells, MKN-74 and SK-GT-2, as well as breast cancer cells, MDA-MB-468, with UCN-01 (7.5 to 10 μM) or Flavo (300 nM) in the presence or absence of MMC (5 μg/ml) or Taxol (50 μM) for 24 hours. Induction of apoptosis was estimated by counting the frequency of condensed nuclear chromatin with Hoechst-33258 stain in duplicate samples of 400 cells.

## CCCCCCCCCCCCCC(=O)O[C@@H]1[C@@H](C)[C@@]2(O)[C@@H](C=C(CO)C[C@]3(O)C(=O)C(C)=C[C@@H]23)[C@@H]2C(C)(C)[C@]12OC(C)=O [PMA, 3-phorbol 12-myristate 13-acetate]
SK-GT-5 cells
  percentage of cells undergoing apoptosis (QFM): essentially no effect on inducing apoptosis

## CC(=O)O[C@H]1C(=O)[C@@]2(C)[C@H]([C@H](OC(=O)c3ccccc3)[C@]3(O)C[C@H](OC(=O)[C@H](O)[C@@H](NC(=O)c4ccccc4)c4ccccc4)C(C)=C1C3(C)C)[C@]1(OC(C)=O)CO[C@@H]1C[C@@H]2O [paclitaxel, Tax-11-en-9-one, 5 beta, 20-epoxy-1, 2 alpha, 4, 7 beta, 10 beta, 13 alpha-hexahydroxy-1,4, 10-diacetate, 2 benzoate 13-(alpha-phenylhippurate)]
Metastatic breast cancer; 96 hour infusion, taxane resistant population
  response rate: 286
Metastatic breast cancer; first chemotherapy, 24 hour infusion with or without G-CSF
  response rates: 56–62%
Metastatic breast cancer; first line, 250 mg/m^2 over 3 hour infusion
  response rate: 32%
MKN-74 cells; MMC 1 μg/ml
  Percent Apoptosis: 5.5%±1
MKN-74 cells; MMC 1 μg/ml, listed as Paclitaxel
  Percent Apoptosis: 6% ± 1%
MKN-74 cells; 24 hours, FLAVO 300 nM, Taxol 50 μM, MMC 1 μg/ml, single drugs or in combination
  % APOPTOSIS: 9%
MKN-74 cells; 24 hours, FLAVO 300 nM, Taxol 50 μM, MMC 1 μg/ml, single drugs or together
  percent induction of apoptosis, Concomitant: 9% ± 1%
MKN-74 cells; 24 hours, Taxol 50 μM
  induction of apoptosis (condensed chromatin, 400 cells): 2% ± 1
Esophageal carcinoma; 250 mg/m^2 by 24 hour infusion every 21 days with G-CSF, 51 patients
  major responses: 32%
Esophageal carcinoma; 250 mg/m^2 by 24 hour infusion, 51 patients
  complete response: 2%
Esophageal carcinoma; in vivo
  median survival: 13 months
Mammary carcinomas
  increase in tumor size by day #6: 22%
MKN-74
  % of Cells Alive: 93%

## CN(C)C[C@H]1CCn2c(c(C3=C(c4cn(C)c5ccccc45)C(=O)NC3=O)c3ccccc32)C1 [RO 32-0432]
PKC; Ro32-0432, read-out: IC50, PKC enzyme activity
  IC50: […]
MKN-74 cells; 24 hours, RO 32-0432 1 μM, MMC
  percentage of cells undergoing apoptosis (QFM): essentially no effect on inducing apoptosis
MKN-74 cells; Ro 2 μM, MMC 1 μg/ml
  percent induction of apoptosis, 6hrs: 0.3%
  percent induction of apoptosis, 12hrs: 1.5%
  percent induction of apoptosis, 24hrs: 1.2%
  percent induction of apoptosis, 48hrs: 5.0%
  percent induction of apoptosis, 72hrs: 13%

## CCC/C=C/C=C/C(=O)O[C@H]1/C(=C/C(=O)OC)C[C@H]2C[C@H]([C@@H](C)O)OC(=O)C[C@H](O)C[C@@H]3C[C@H](OC(C)=O)C(C)(C)[C@](O)(C[C@@H]4C/C(=C/C(=O)OC)C[C@H](/C=C/C(C)(C)[C@]1(O)O2)O4)O3 [bryostatin]
Mammary carcinomas
  increase in tumor size by day #6: 80%
Mammary carcinomas; first noted 12 to 24 hours after bryostatin
  tumor energy and pH (NMR): dose-dependent decrease in tumor energy and pH
MKN-74
  % of Cells Alive: 85%

## CN[C@@H]1C[C@H]2O[C@@](C)([C@@H]1OC)n1c3ccccc3c3c4c(c5c6ccccc6n2c5c31)C(=O)N[C@H]4O [UCN-01, 7-OH-staurosporine]
[1]; FIG. 10, UCN-01 1 μM, MMC 5.0 μg/ml
  induction of apoptosis (QFM): 20%±4
[1]; MDA-MB-468, UCN-01 7.5 to 10 μM, MMC 5 μg/ml
  induction of apoptosis (condensed chromatin, 400 cells): 20% ± 1
PKC
  concentration range that inhibits PKC activity: nanomolar concentrations
SK-GT-2 cells; UCN-01 0.1 μM
  percentage of cells undergoing apoptosis (QFM): 1%±0%
SK-GT-2 cells; UCN-01 1 μM
  percentage of cells undergoing apoptosis (QFM): 1%±0
SK-GT-2 cells; UCN-01 10 μM
  percentage of cells undergoing apoptosis (QFM): 21%±1%
SK-GT-2 cells; UCN-01 7.5 to 10 μM, MMC 5 μg/ml
  induction of apoptosis (condensed chromatin, 400 cells): 18% ± 4
MKN-74 cells; 24 hours, Taxol 50 μM
  induction of apoptosis (condensed chromatin, 400 cells): 10% ± 2

## N.N.O=C([O-])C1(C(=O)[O-])CCC1.[Pt+2] [carboplatin]
MKN-74 cells; MMC 1 μg/ml
  Percent Apoptosis: 1%±1%
MKN-74 cells; MMC 1 μg/ml, listed as Carboplatin
  Percent Apoptosis: 1% ± 1%
